Assay in all cases: NCI tumour cell line growth inhibition, 48 h
Assay [1] relates to HOP-92.
The subject of assay [2] is SNB-78.
Assay [3] concerns DMS-114.
For assay [4], the system named is HL-60.
Assay [5] relates to KM12.
In assay [6] the test system is SW-620.
For assay [7], the system named is SK-OV-3.
For assay [8], the system named is UO-31.
Assay [9] concerns Malme-3M.
Assay [10] deals with NCI-H23.
The test system of assay [11] is MOLT-4.
Assay [12] concerns DLD-1.
The subject of assay [13] is RPMI-8226.
Assay [14] has as its system HCT-15.
For assay [15], the system named is LOX IMVI.
For assay [16], the system named is NCI/ADR-RES.
The subject of assay [17] is SF-268.
The test system of assay [18] is SF-539.
Assay [19] has as its system SN12C.
The test system of assay [20] is UACC-257.

Structures are written as SMILES.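 A five-concentration, 48-hour dose response in 96-well plates underlies each endpoint, interpolated linearly between surrounding concentrations. At the GI50, growth is halved.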 Activity calls are given as the source filed them. No stated cut-off is given here; in the data, active = GI50 up to about 1.1 µM and inactive = higher.

Take `CSCSCC(CO)NC(=O)/C=C\c1c(C)[nH]c(=O)[nH]c1=O` (stereo not given): the GI50 in assay [1] is 0.838 µM (active); in assay [2], 34.4 µM (inactive); in assay [3], 5.56 µM (inactive); in assay [4] it was 9.51 µM (inactive); in assay [5], 12.7 µM (inactive); in [6], 15.7 µM (inactive). The GI50 in assay [7] is 11.1 µM (inactive); in assay [8], 14.9 µM (inactive); in assay [9], 8.18 µM (inactive); in [10] it was 17.7 µM (inactive); in [11] it was 7.74 µM (inactive); in [12], 11.6 µM (inactive). Further, the GI50 in assay [13] is 51.5 µM (inactive); in [14], 17.9 µM; in assay [15], 14.1 µM (inactive); in assay [16] it was 19 µM (inactive); in assay [17] it was 7.64 µM (inactive); in [18], 32.9 µM (inactive). The GI50 is 8.15 µM (inactive) in assay [19] and 48.6 µM (inactive) in assay [20].

In the case of `COC(=O)[C@@H](O)[C@](O)(CCC(C)C)C(=O)O[C@@H]1C(OC)=C[C@]23CCCN2CCc2cc4c(cc2[C@H]13)OCO4`, the GI50 in [1] was 1.05 µM (active); in [2], 2.59 µM (inactive); in [3], 0.265 µM (active); in assay [4], 0.349 µM (active); in [5], 1.26 µM (inactive); in [6] it was 2.21 µM (inactive). Also, the GI50 in [7] was 1.17 µM (inactive); in assay [8], 1.5 µM (inactive); in assay [9], 0.459 µM (active); in assay [10], 1.55 µM (inactive); in assay [11], 0.32 µM (active); in assay [12], 1 µM (active). Also, the GI50 was 1.34 µM (inactive) in assay [13]; 1.68 µM in assay [14]; 0.562 µM (active) in assay [15]; 11.8 µM (inactive) in assay [16]; 0.984 µM (active) in [17]; 0.673 µM (active) in assay [18]. The GI50 in [19] is 2.36 µM (inactive); in [20], 1.82 µM (inactive).

With `NC(=O)C(=O)N/N=C1/c2ccccc2CC1C1(O)C(=O)Nc2c(Cl)cc(Cl)cc21` (stereo not given), the GI50 in assay [1], in [2], in [3], in [4], in assay [5] and in [6] was > 100 µM (inactive) each time. Also, the GI50 in [7], in assay [8], in [9], in assay [10], in assay [11] and in assay [12] was > 100 µM (inactive) in each case. Moreover, the GI50 was > 100 µM (inactive) in assay [13]; above 100 µM in assay [14]; 88.3 µM (inactive) in assay [15]; > 100 µM (inactive) in [17]; > 100 µM (inactive) in [18]; > 100 µM (inactive) in [19]. The GI50 in [20] was > 100 µM (inactive).

Turning to `N/C(=N\O)N/N=C\c1ccccc1O`, the GI50 in [1] is 8.79 µM (inactive); in assay [2] it was 21.9 µM (inactive); in [3] it was 4.73 µM (inactive); in [4] it was 0.977 µM (active); in [5] it was 5.02 µM (inactive); in [6], 13.1 µM (inactive). Also, the GI50 in assay [7] was 31.3 µM (inactive); in assay [8] it was 7.98 µM (inactive); in assay [9], 22.4 µM (inactive); in [10] it was 7.6 µM (inactive); in [11], 7.13 µM (inactive); in assay [12] it was 5.02 µM (inactive). Further, the GI50 was 1.48 µM (inactive) in [13]; 3.48 µM in [14]; 5.48 µM (inactive) in assay [15]; 4.14 µM (inactive) in assay [16]; 12.4 µM (inactive) in assay [17]; 14.5 µM (inactive) in assay [18]. For the same compound, the results for the GI50 in assay [19] and in [20] were 11.6 µM (inactive) and 16.2 µM (inactive), respectively.

Regarding `CC(=O)OC1C=C(C=O)C(O)(C=O)C2(C)CCCC(C)(C)C12` (stereo not given), the GI50 in assay [1] was 1.05 µM (active); in assay [2] it was 2.67 µM (inactive); in [3], 0.927 µM (active); in assay [4], 0.249 µM (active); in [5], 2.31 µM (inactive); in [6], 0.485 µM (active). The GI50 in assay [7] was 4.34 µM (inactive); in assay [8] it was 2.32 µM (inactive); in assay [9], 0.971 µM (active); in assay [10] it was 1.44 µM (inactive); in assay [11], 0.37 µM (active); in assay [12], 1.05 µM (active). For the same compound, the GI50 in [13] was 0.519 µM (active); in assay [14], 0.6 µM; in [15], 0.942 µM (active); in assay [16] it was 1.8 µM (inactive); in assay [17], 2.42 µM (inactive); in assay [18] it was 2.4 µM (inactive). The GI50 is 2.52 µM (inactive) in assay [19] and 2 µM (inactive) in assay [20].

For the compound `CCCCCCCCC1=CCC(CN(C)C)C1=O` (stereo not given), the GI50 is 16.9 µM (inactive) in assay [1]; 23.8 µM (inactive) in [2]; 18.7 µM (inactive) in [3]; 12 µM (inactive) in assay [4]; 15.1 µM (inactive) in assay [5]; 19.9 µM (inactive) in [6]. Also, the GI50 was > 100 µM (inactive) in assay [7]; 17 µM (inactive) in [8]; 17.8 µM (inactive) in [9]; 19.9 µM (inactive) in [10]; 19 µM (inactive) in [11]; 18.8 µM (inactive) in assay [12]. Moreover, the GI50 in assay [13] is 1.34 µM (inactive); in assay [14] it was 17.8 µM; in assay [15], 16.6 µM (inactive); in assay [16], 20.5 µM (inactive); in [17] it was 18.3 µM (inactive); in assay [18], 19.7 µM (inactive). Also, the GI50 in assay [19] was 17.1 µM (inactive); in [20], 20.9 µM (inactive).

As to `CCCOC(=O)CNC(=O)OC(C)(C)C`, the GI50 in assay [1], in assay [2], in assay [3], in assay [4], in assay [5] and in assay [6] was > 100 µM (inactive) in each case. For the same compound, the GI50 was > 100 µM (inactive) in assay [7]; > 100 µM (inactive) in assay [8]; > 100 µM (inactive) in [9]; > 100 µM (inactive) in assay [10]; > 100 µM (inactive) in assay [12]; above 100 µM in [14]. Also, the GI50 in assay [15], in assay [17], in [18] and in [20] was > 100 µM (inactive) in each case.

For the compound `CC(C)=CCc1c(O)ccc2ccc(=O)oc12` [OSTHENOL], the GI50 in assay [1] was 38.4 µM (inactive); in assay [2], 32 µM (inactive); in assay [3] it was 27.9 µM (inactive); in [4], 28.2 µM (inactive); in assay [5], > 75.5 µM (inactive); in assay [6], > 100 µM (inactive). In addition, the GI50 in assay [7] was > 100 µM (inactive); in [8] it was 29.4 µM (inactive); in assay [9], 38.2 µM (inactive); in assay [10], 55.5 µM (inactive); in assay [11], 26.9 µM (inactive); in [12] it was > 100 µM (inactive). The GI50 is 26.7 µM (inactive) in assay [13]; 60.1 µM in [14]; 51.5 µM (inactive) in assay [15]; 20.9 µM (inactive) in [16]; 33.7 µM (inactive) in assay [17]; 24 µM (inactive) in [18]. Besides, the GI50 in assay [19] was > 91.8 µM (inactive); in assay [20] it was 33 µM (inactive).

(Values after ChEMBL document CHEMBL1201862, “PubChem BioAssay data set” (2004).)
